This note sets out measurements from ChEMBL document CHEMBL1697821, “Development of a phospholipidosis database and predictive quantitative structure-activity relationship (QSAR) models” (Toxicol Mech Methods, 2008).

SMILES strings stand for the structures.

This data set relates to Phospholipidosis. The data set is described as follows: Literature-mined public compounds from Kruhlak et al phospholipidosis modelling dataset.
Regarding `Cc1c(-c2ccccc2)n(/N=N/n2c(-c3ccccc3)c(C)[n+]3ccccc23)c2cccc[n+]12.[Br-].[Br-]` [FAZADINIUM BROMIDE], the Phospholipidosis entry is “Negative: based on the absence of positive reported data from WMDD”.
In the case of `O=c1[nH]c(=S)[nH]cc1I` [IODOTHIOURACIL], the Phospholipidosis entry is listed as “Negative: based on the absence of positive reported data from WMDD”.
In the case of `CCCC(CCC)C(=O)O` [VALPROIC ACID], the Phospholipidosis result was “Negative: confirmed by electron microscopy”.
With `N=c1ccn2c(n1)O[C@H]1[C@H](O)[C@@H](CO)O[C@H]12` [ANCITABINE], the Phospholipidosis entry is on record as “Negative: based on the absence of positive reported data from WMDD”.
As for `N#Cc1ccc(NC(=O)N=C(N)N)cc1Cl` [CLOGUANAMIL], the entry is “Positive: weak inducer based on presence of foamy macrophages and cytoplasmic vacuolations”; as for `CC[C@]1(O)CC[C@H]2[C@@H]3CCC4=CCCC[C@@H]4[C@H]3CC[C@@]21C`, “Negative: based on the absence of positive reported data from WMDD”; as for `NCCc1c[nH]cn1` [HISTAMINE], “Negative: based on the absence of positive reported data from WMDD”.
On to `CC(=O)NCc1c(I)c(NC(C)=O)c(I)c(C(=O)O)c1I` [IODAMIDE], for which the Phospholipidosis result is recorded as “Negative: based on the absence of positive reported data from WMDD”.
On to `CCOC(=O)C1(c2ccccc2)CCN(CCc2ccc(N)cc2)CC1` [ANILERIDINE], for which the Phospholipidosis result was “Negative: based on the absence of positive reported data from WMDD”.
Then `CO[C@H]1[C@@H](O)C[C@H](O[C@H]2[C@@H](O)C[C@H](O[C@H]3[C@@H](O)C[C@H](O[C@H]4CC[C@@]5(C)[C@H](CC[C@@H]6[C@@H]5C[C@@H](O)[C@]5(C)[C@@H](C7=CC(=O)OC7)CC[C@]65O)C4)O[C@@H]3C)O[C@@H]2C)O[C@@H]1C` [METILDIGOXIN], with “Negative: based on the absence of positive reported data from WMDD”; and `NS(=O)(=O)c1cc2c(cc1C(F)(F)F)NC(Cc1ccccc1)NS2(=O)=O` (stereo unspecified) [BENDROFLUMETHIAZIDE], with “Negative: based on the absence of positive reported data from WMDD”; and `O=C1CSC2(CCN(CCCN3c4ccccc4Sc4ccc(Cl)cc43)CC2)N1` [SPICLOMAZINE], with “Negative: based on the absence of positive reported data from WMDD”.
Regarding `Cc1ccc(N(CC2=NCCN2)c2cccc(O)c2)cc1` [PHENTOLAMINE], the Phospholipidosis result is on record as “Negative: based on the absence of positive reported data from WMDD”.
Then `NNc1nnc(NN)c2ccccc12` [DIHYDRALAZINE], with “Negative: based on the absence of positive reported data from WMDD”.
In the case of `Cc1cc(NS(=O)(=O)c2ccc(N)cc2)no1` [SULFAMETHOXAZOLE], the Phospholipidosis result is given as “Negative: confirmed by electron microscopy”.
As for `C[N+]1(C)[C@@H]2CC[C@H]1C[C@@H](OC(=O)C(O)c1ccccc1)C2.[Br-]` (stereo partly specified) [HOMATROPINE METHYLBROMIDE], the entry is “Negative: based on the absence of positive reported data from WMDD”; as for `C[N+](C)(C)CCCCCCCCCC[N+](C)(C)C.[Br-].[Br-]` [DECAMETHONIUM BROMIDE], “Negative: based on the absence of positive reported data from WMDD”; as for `CC(O)C(=O)O` (stereo unspecified) [LACTIC ACID], “Negative: based on the absence of positive reported data from WMDD”.
As for `COC(=O)CCc1ccc(OCC(O)CNC(C)C)cc1` (stereo unspecified) [ESMOLOL], the entry is “Negative: based on the absence of positive reported data from WMDD”; as for `CNCCC=C1c2ccccc2CCc2ccccc21` [NORTRIPTYLINE], “Positive: strong inducer confirmed by electron microscopy”; as for `CC(C)C[C@H](N)C(=O)O` [LEUCINE], “Negative: based on the absence of positive reported data from WMDD”.
Then `C[N+]1(C)CCN(CC(O)(c2ccccc2)C2CCCCC2)CC1` (stereo unspecified) [HEXOCYCLIUM], with “Negative: based on the absence of positive reported data from WMDD”; and `CC(Oc1ccccc1)C(=O)N[C@@H]1C(=O)N2[C@@H]1SC(C)(C)[C@@H]2C(=O)O` (stereo partly specified) [PHENETHICILLIN], with “Negative: based on the absence of positive reported data from WMDD”; and `CCCCN(CCCC)CCNc1nc(-c2ccccc2)no1` [BUTALAMINE], with “Negative: based on the absence of positive reported data from WMDD”.
Consider `CN(C)C/C=C(/c1ccc(Br)cc1)c1cccnc1` [ZIMELDINE], for which the Phospholipidosis entry is “Positive: strong inducer confirmed by electron microscopy”.
Take `CCOC(=O)[C@H](CCc1ccccc1)N[C@@H](C)C(=O)N1[C@H](C(=O)O)C[C@H]2CCCC[C@@H]21` [TRANDOLAPRIL]: the Phospholipidosis result is on record as “Negative: based on the absence of positive reported data from WMDD”.
As for `CC(C)NCC1CCc2cc(CO)c([N+](=O)[O-])cc2N1` (stereo unspecified) [OXAMNIQUINE], the entry is “Negative: based on the absence of positive reported data from WMDD”.
For the molecule `CC(=O)[C@]1(O)Cc2c(O)c3c(c(O)c2[C@@H](O[C@H]2C[C@H](N)[C@H](O)[C@H](C)O2)C1)C(=O)c1ccccc1C3=O` [IDARUBICIN], the Phospholipidosis result is given as “Negative: based on the absence of positive reported data from WMDD”.
Consider `Cc1ccc(Cl)c(OCC(O)CNC(C)(C)C)c1` (stereo unspecified) [BUPRANOLOL], for which the Phospholipidosis result was “Negative: based on the absence of positive reported data from WMDD”.
Turning to `CC1(C)C(/C=C/C=C/C=C/C=C2/N(CCCCS(=O)(=O)[O-])c3ccc4ccccc4c3C2(C)C)=[N+](CCCCS(=O)(=O)[O-])c2ccc3ccccc3c21.[Na+]` [INDOCYANINE GREEN], the Phospholipidosis result is “Negative: based on the absence of positive reported data from WMDD”.
For the molecule `COc1cccc(C2(O)CCCCC2CN(C)C)c1` (stereo unspecified) [TRAMADOL], the Phospholipidosis result is reported as “Negative: based on the absence of positive reported data from WMDD”.
In the case of `CC(C)NCC(O)COc1cccc2[nH]ccc12` (stereo unspecified) [PINDOLOL], the Phospholipidosis entry is listed as “Negative: based on the absence of positive reported data from WMDD”.
Consider `Cn1c(=O)c2c(ncn2C)n(C)c1=O` [CAFFEINE], for which the Phospholipidosis result was “Negative: confirmed by electron microscopy”.
As for `CNCCCN1c2ccccc2CCc2ccccc21` [DESIPRAMINE], the entry is “Positive: weak inducer based on presence of foamy macrophages and cytoplasmic vacuolations”.
With `Clc1cccc(Cl)c1N=C1NCCN1` [CLONIDINE], the Phospholipidosis entry was “Negative: based on the absence of positive reported data from WMDD”.
As for `CCOC(=O)[C@H](CCc1ccccc1)N[C@@H](C)C(=O)N1Cc2ccccc2C[C@H]1C(=O)O`, the Phospholipidosis result is reported as “Negative: based on the absence of positive reported data from WMDD”.
Then `CN(C)CCOC(C)(c1ccccc1)c1ccccn1` (stereo unspecified) [DOXYLAMINE], with “Negative: based on the absence of positive reported data from WMDD”; and `CN1C(=O)CN=C(c2ccccc2)c2cc(Cl)ccc21` [DIAZEPAM], with “Negative: confirmed by electron microscopy”; and `C[C@]12C=CC(=O)C=C1CC[C@@H]1[C@@H]2[C@@H](O)C[C@@]2(C)[C@H]1CC[C@]2(O)C(=O)COC(=O)CCC(=O)O` [PREDNISOLONE HEMISUCCINATE], with “Negative: based on the absence of positive reported data from WMDD”.
Then `COc1ccc(CC2c3cc(OC)c(OC)cc3CC[N+]2(C)CCC(=O)OCCCCCOC(=O)CC[N+]2(C)CCc3cc(OC)c(OC)cc3C2Cc2ccc(OC)c(OC)c2)cc1OC` (stereo unspecified), with “Negative: based on the absence of positive reported data from WMDD”.
As to `CC(C)NCC(O)COc1cccc2ccccc12` (stereo unspecified) [PROPRANOLOL], the Phospholipidosis entry was “Positive: weak inducer based on presence of foamy macrophages and cytoplasmic vacuolations”.
As for `CCCC(CCC)C(=O)O[C@H]1C[C@H]2CC[C@@H](C1)[N+]2(C)C.[Br-]` [ANISOTROPINE METHYLBROMIDE], the entry is “Negative: based on the absence of positive reported data from WMDD”; as for `O=c1[nH]cc(F)c(=O)[nH]1` [FLUOROURACIL], “Negative: based on the absence of positive reported data from WMDD”; as for `O=C[C@H](O)[C@@H](O)[C@H](O)CO` [XYLOSE], “Negative: based on the absence of positive reported data from WMDD”.
With `Cc1cc(=O)n(-c2ccccc2)n1C.OC(O)C(Cl)(Cl)Cl.OC(O)C(Cl)(Cl)Cl` [DICHLORALPHENAZONE], the Phospholipidosis entry is recorded as “Negative: based on the absence of positive reported data from WMDD”.
As for `O=C(O)C1CSCN1` (stereo unspecified) [TIMONACIC], the Phospholipidosis entry is given as “Negative: based on the absence of positive reported data from WMDD”.
Take `C[N+](C)(CCOc1ccccc1)Cc1ccccc1.O=C([O-])c1cc2ccccc2cc1O` [BEPHENIUM HYDROXYNAPHTHOATE]: the Phospholipidosis entry is recorded as “Negative: based on the absence of positive reported data from WMDD”.
`CCC1(C)OC(=O)N(C)C1=O` (stereo unspecified) [PARAMETHADIONE]: the Phospholipidosis result is reported as “Negative: based on the absence of positive reported data from WMDD”.
As for `CN1[C@@H](CC(=O)c2ccccc2)CCC[C@H]1C[C@H](O)c1ccccc1` [LOBELINE], the entry is “Negative: based on the absence of positive reported data from WMDD”; as for `O=C1CN2CCOC2(c2ccccc2F)c2cc(Cl)ccc2N1CCO` (stereo unspecified) [FLUTAZOLAM], “Negative: based on the absence of positive reported data from WMDD”; as for `CS(=O)(=O)c1ccc(C2=C(c3ccccc3)C(=O)OC2)cc1` [ROFECOXIB], “Negative: based on the absence of positive reported data from WMDD”.
Then `CC(C)NC[C@H](O)COc1ccc(O)cc1` [PRENALTEROL], with “Negative: based on the absence of positive reported data from WMDD”.
On to `CC1(C)C(=O)NC(=O)N1CC(COc1ccc(-c2ccc(OC(F)(F)F)cc2)cc1)NC=O` (stereo unspecified), for which the Phospholipidosis result is on record as “Negative: confirmed by electron microscopy”.
For the molecule `OCc1ccccc1` [BENZYL ALCOHOL], the Phospholipidosis result was “Negative: based on the absence of positive reported data from WMDD”.
Then `O=C1Nc2ccc(Cl)cc2C(c2ccccc2Cl)=NC1O` (stereo unspecified) [LORAZEPAM], with “Negative: based on the absence of positive reported data from WMDD”; and `CN1C(=O)OC(C)(C)C1=O` [TRIMETHADIONE], with “Negative: based on the absence of positive reported data from WMDD”.
